Experimental data as given in PubChem BioAssay (NCI).
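Grown in 96-well plates, cells were treated for 48 hours with each compound at five concentrations. Insufficient inhibition: endpoint recorded as highest concentration tested. TGI denotes the concentration required for complete inhibition of growth.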

What was measured:
Experiment in all cases: DTP human tumour cell line panel, 48 h
[1] = test system: NCI-H522 lung
[2] = test system: OVCAR-3 ovarian
[3] = test system: MALME-3M melanoma
[4] = test system: RXF 393 renal
[5] = test system: UACC-62 melanoma
[6] = test system: M14 melanoma
[7] = test system: SNB-75 CNS
[8] = test system: SF-295 CNS
[9] = test system: UACC-257 melanoma
[10] = test system: SW-620 colon
[11] = test system: NCI-H460 lung
[12] = test system: HL-60(TB) leukemia
[13] = test system: RPMI-8226 leukemia
[14] = test system: A549 NSCLC
[15] = test system: BT-549 breast
[16] = test system: K-562 leukemia
[17] = test system: HCT-116 colon
[18] = test system: CCRF-CEM leukemia
[19] = test system: HCT-15 colon
[20] = test system: SK-MEL-28 melanoma

SMILES: Nc1ccc(Oc2ccc(C3(c4ccc(Oc5ccc(N)cc5)cc4)C4CC5C6CC7CC5C3C(C7)C6C4)cc2)cc1
- TGI [1]: > 100 µM
- TGI [2]: > 100 µM
- TGI [3]: > 100 µM
- TGI [4]: 22.6 µM
- TGI [5]: > 100 µM
- TGI [6]: > 100 µM
- TGI [7]: > 100 µM
- TGI [8]: > 100 µM
- TGI [9]: > 100 µM
- TGI [10]: > 100 µM
- TGI [11]: > 100 µM
- TGI [12]: > 100 µM
- TGI [13]: > 100 µM
- TGI [14]: > 100 µM
- TGI [15]: > 100 µM
- TGI [16]: > 100 µM
- TGI [17]: > 100 µM
- TGI [18]: > 100 µM
- TGI [19]: > 100 µM
- TGI [20]: > 100 µM

SMILES: COc1cccc(C(=O)Nc2c3ccccc3nc3ccccc23)c1OC
- TGI [1]: 89.9 µM
- TGI [2]: > 100 µM
- TGI [3]: > 100 µM
- TGI [4]: 72.2 µM
- TGI [5]: > 100 µM
- TGI [6]: > 100 µM
- TGI [7]: 71 µM
- TGI [8]: > 100 µM
- TGI [9]: > 100 µM
- TGI [10]: > 100 µM
- TGI [11]: > 100 µM
- TGI [12]: > 100 µM
- TGI [13]: > 100 µM
- TGI [14]: > 100 µM
- TGI [15]: > 100 µM
- TGI [16]: > 100 µM
- TGI [17]: > 100 µM
- TGI [18]: > 100 µM
- TGI [19]: > 100 µM
- TGI [20]: > 100 µM

SMILES: CC(C)(C)N1C(=O)c2ccccc2C1(O)C(F)(F)F (stereo not given)
- TGI [1]: > 100 µM
- TGI [2]: > 100 µM
- TGI [3]: > 100 µM
- TGI [4]: > 100 µM
- TGI [5]: > 100 µM
- TGI [6]: > 100 µM
- TGI [7]: > 100 µM
- TGI [8]: > 100 µM
- TGI [9]: > 100 µM
- TGI [10]: > 100 µM
- TGI [11]: > 100 µM
- TGI [12]: > 100 µM
- TGI [13]: > 100 µM
- TGI [14]: > 100 µM
- TGI [15]: > 100 µM
- TGI [16]: > 100 µM
- TGI [17]: > 100 µM
- TGI [18]: > 100 µM
- TGI [19]: > 100 µM
- TGI [20]: > 100 µM

SMILES: COC(=O)C(Cc1ccccc1)NC(=O)C(CCC(=O)OCc1ccccc1)NC(=O)OC(C)(C)C (stereo not given)
- TGI [1]: > 100 µM
- TGI [2]: > 100 µM
- TGI [3]: > 100 µM
- TGI [4]: > 100 µM
- TGI [5]: > 100 µM
- TGI [6]: > 100 µM
- TGI [7]: > 100 µM
- TGI [8]: > 100 µM
- TGI [9]: > 100 µM
- TGI [10]: > 100 µM
- TGI [11]: > 100 µM
- TGI [12]: > 100 µM
- TGI [13]: > 100 µM
- TGI [14]: > 100 µM
- TGI [15]: > 100 µM
- TGI [16]: > 100 µM
- TGI [17]: > 100 µM
- TGI [18]: > 100 µM
- TGI [19]: > 100 µM
- TGI [20]: > 100 µM

SMILES: C=CCc1c(C)nc(C)nc1N/N=C/C=C/c1ccccc1
- TGI [1]: > 100 µM
- TGI [2]: 53.3 µM
- TGI [3]: > 100 µM
- TGI [4]: 47 µM
- TGI [5]: 53.4 µM
- TGI [6]: > 100 µM
- TGI [7]: 91.6 µM
- TGI [8]: 52.9 µM
- TGI [9]: 48.9 µM
- TGI [10]: > 100 µM
- TGI [11]: 57.5 µM
- TGI [12]: 81.2 µM
- TGI [13]: 74.9 µM
- TGI [14]: > 100 µM
- TGI [15]: 63.2 µM
- TGI [16]: 87.4 µM
- TGI [17]: > 100 µM
- TGI [18]: > 100 µM
- TGI [19]: > 100 µM
- TGI [20]: > 100 µM

SMILES: O=C1OC2C(O)COC2(O)C1(O)C(C[N+](=O)[O-])c1ccc(Cl)cc1 (stereo not given)
- TGI [1]: 23.7 µM
- TGI [2]: 21.5 µM
- TGI [3]: 30.3 µM
- TGI [4]: 9.21 µM
- TGI [5]: 22.8 µM
- TGI [6]: 13.6 µM
- TGI [7]: 20.1 µM
- TGI [8]: 27.9 µM
- TGI [9]: 17.4 µM
- TGI [10]: 14.1 µM
- TGI [11]: 34.7 µM
- TGI [12]: 10.5 µM
- TGI [13]: 4.67 µM
- TGI [14]: 37.1 µM
- TGI [15]: 13.1 µM
- TGI [16]: 22.4 µM
- TGI [17]: 3.34 µM
- TGI [18]: 24.1 µM
- TGI [19]: 16.7 µM
- TGI [20]: 10.8 µM

SMILES: CCOC(=O)N1CC2(C)C=CC1C(C(=O)OC)C2 (stereo not given)
- TGI [1]: > 100 µM
- TGI [2]: > 100 µM
- TGI [3]: > 100 µM
- TGI [4]: > 100 µM
- TGI [5]: > 100 µM
- TGI [6]: > 100 µM
- TGI [7]: > 100 µM
- TGI [8]: > 100 µM
- TGI [9]: > 100 µM
- TGI [10]: > 100 µM
- TGI [11]: > 100 µM
- TGI [12]: > 100 µM
- TGI [13]: > 100 µM
- TGI [14]: > 100 µM
- TGI [15]: > 100 µM
- TGI [16]: > 100 µM
- TGI [17]: > 100 µM
- TGI [18]: > 100 µM
- TGI [19]: > 100 µM
- TGI [20]: > 100 µM

SMILES: CCSC1=N/C(=C\c2ccco2)C(NN)=N1
- TGI [1]: > 50 µM
- TGI [2]: > 50 µM
- TGI [3]: > 50 µM
- TGI [4]: > 50 µM
- TGI [5]: > 50 µM
- TGI [6]: > 50 µM
- TGI [7]: > 50 µM
- TGI [8]: > 50 µM
- TGI [9]: > 50 µM
- TGI [10]: > 50 µM
- TGI [11]: > 50 µM
- TGI [12]: > 50 µM
- TGI [13]: > 50 µM
- TGI [14]: > 50 µM
- TGI [15]: > 50 µM
- TGI [16]: > 50 µM
- TGI [17]: > 50 µM
- TGI [18]: > 50 µM
- TGI [19]: > 50 µM
- TGI [20]: > 50 µM

SMILES: CCOC(=O)CC(=O)C(=O)NNC1=NCCN1
- TGI [1]: > 100 µM
- TGI [2]: > 100 µM
- TGI [3]: > 100 µM
- TGI [4]: > 100 µM
- TGI [5]: > 100 µM
- TGI [6]: > 100 µM
- TGI [7]: > 100 µM
- TGI [8]: > 100 µM
- TGI [9]: > 100 µM
- TGI [10]: > 100 µM
- TGI [11]: > 100 µM
- TGI [12]: > 100 µM
- TGI [13]: > 100 µM
- TGI [14]: > 100 µM
- TGI [15]: > 100 µM
- TGI [16]: > 100 µM
- TGI [17]: > 100 µM
- TGI [18]: > 100 µM
- TGI [19]: > 100 µM
- TGI [20]: > 100 µM
